Data published in patent US20220160009A1, “COMPOSITION COMPRISING TRANSFRUCTOSYLATED STEVIOL GLYCOSIDE” (CJ CHEILJEDANG CORPORATION, priority 2019, published 2022).

Experiments:
[1] = Sensory preference evaluation by 15 panels; settings: diluted to sweetness equivalent to 10% (w/w) or 10 brix of sugar, 9-point scale converted to 5-point scale
Method: Prior to sensory evaluation, four samples of Example 1 (STV, STV-Fru, RA, RA-Fru) were diluted to the sweetness equivalent to 10% (w/w) or 10 brix of sugar, and the sensory evaluation was carried out on the four samples.
The evaluation was proceeded as follow: 15 panels were given the four samples and required to evaluate the sweetness preference and the overall preference of the four samples on a 9-point scale (1=very much dislike, 5=neither dislike nor like, 9=very much like).
Then, the statistical analysis was converted to a 5-point scale to verify the significant difference through paired T tests (reliability level of 95%).

[2] = Sensory descriptive analysis by experts (n=15); settings: diluted to equivalent sweetness based on 10 brix of sugar
Method: The transfructosylated Stevioside (STV-Fru) and the transfructosylated Rebaudioside A (RA-Fru) prepared in Preparation Example 1 were diluted to the sweetness equivalent to Stevioside (STV) and Rebaudioside A (RA) (sweetness based on 10 brix of sugar), respectively, and then presented to experts (n=15) for descriptive analysis.

[3] = listed as transfructosylated Rebaudioside A
[4] = listed as transfructosylated Stevioside

Compound	Overall Preference [1]	Sweetness Preference [1]	Bitterness Intensity [2]	Feeling of Weight [2]	Off-smell/Off flavor Intensity [2]	Overall Preference [2]	Sweetness Intensity [2]	Sweetness Persistence [2]	Sweetness Preference [2]	further results
C=C1C[C@@]23CC[C@H]4[C@@](C)(CCC[C@@]4(C)C(=O)O[C@@H]4O[C@H](CO[C@]5(CO)O[C@H](CO)[C@@H](O)[C@@H]5O)[C@@H](O)[C@H](O)[C@H]4O)[C@@H]2CC[C@]1(O[C@@H]1O[C@H](CO)[C@@H](O)[C@H](O[C@@H]2O[C@H](CO)[C@@H](O)[C@H](O)[C@H]2O)[C@H]1O[C@@H]1O[C@H](CO)[C@@H](O)[C@H](O)[C@H]1O)C3 [RA-Fru, 13-[(2-β-D-glucopyranosyl-3-O-β-D-glucopyranosyl-β-D-glucopyranosyl)oxy]ent-kaur-16-en-19-oic acid 6-O-β-D-fructofuranose-β-D-glucopyranosyl ester]	3.73	3.42	1.8	2.7	2.4	3.5	3.1	2.6	3.4	Overall Preference [1, 3]: excellent; Sweetness Preference [1, 3]: excellent; Bitterness Intensity [2, 3]: significantly low; Off-smell/Off flavor Intensity [2, 3]: significantly low; Overall Preference [2, 3]: significantly high; Sweetness Preference [2, 3]: significantly high
C=C1C[C@@]23CC[C@H]4[C@@](C)(CCC[C@@]4(C)C(=O)O[C@@H]4O[C@H](CO)[C@@H](O)[C@H](O)[C@H]4O)[C@@H]2CC[C@]1(O[C@@H]1O[C@H](CO)[C@@H](O)[C@H](O[C@@H]2O[C@H](CO)[C@@H](O)[C@H](O)[C@H]2O)[C@H]1O[C@@H]1O[C@H](CO)[C@@H](O)[C@H](O)[C@H]1O)C3 [RA, Rebaudioside A, reference compound]	2.72	2.51	3.4	2.9	3.3	2.6	3.2	2.9	2.5	
C=C1C[C@@]23CC[C@H]4[C@@](C)(CCC[C@@]4(C)C(=O)O[C@@H]4O[C@H](CO[C@]5(CO)O[C@H](CO)[C@@H](O)[C@@H]5O)[C@@H](O)[C@H](O)[C@H]4O)[C@@H]2CC[C@]1(O[C@@H]1O[C@H](CO)[C@@H](O)[C@H](O)[C@H]1O[C@@H]1O[C@H](CO)[C@@H](O)[C@H](O)[C@H]1O)C3 [STV-Fru]	3.02	3.14	2.3	3.2	2.3	3.5	2.6	2.7	3.3	Overall Preference [1, 4]: excellent; Sweetness Preference [1, 4]: excellent; Bitterness Intensity [2, 4]: significantly low; Off-smell/Off flavor Intensity [2, 4]: significantly low; Overall Preference [2, 4]: significantly high; Sweetness Preference [2, 4]: significantly high
C=C1C[C@@]23CC[C@H]4[C@@](C)(CCC[C@@]4(C)C(=O)O[C@@H]4O[C@H](CO)[C@@H](O)[C@H](O)[C@H]4O)[C@@H]2CC[C@]1(O[C@@H]1O[C@H](CO)[C@@H](O)[C@H](O)[C@H]1O[C@@H]1O[C@H](CO)[C@@H](O)[C@H](O)[C@H]1O)C3 [STV, Stevioside, reference compound]	2.02	2.13	3.9	2.8	3.5	2.1	2.8	2.9	2.3	
